According to patent publication US20240116994A1, “Peptides And Use Thereof For Diagnosing And Treating Antiphospholipid Syndrome” (UNIVERSITE DE GENEVE, priority 2021, published 2024):
Where no end group is shown, it is not given here.

Test system: aPL (pool from APS patients)
Test: Determination of aPL by ELISA on coated peptides / biotinylated peptides (custom immunoassay)
Assay type: binding, Human
Protocol: Determination of aPL by ELISA—MaxiSorp™ 96 well plates (Nunc) or Streptavidin plate (Thermofisher) were coated with 10 μg/ml recombinant domains of β2GP1, peptides or biotinylated-peptide prior to incubation with aPLA. Secondary anti-human antibodies conjugated to IR800CW (Rockland) or HRP were used. Protein- or peptide-bound antibodies were detected and quantified by the Odyssey system (Li-Cor Biosciences) or absorbance in optical densities (OD) was determined at 405 nm (molecular Devices™ Filtermax).
The de Groot's research group has pointed at the importance of hydrophobic character of the plate during coating of R39-R43 epitope. In order to abrogate of the plate-dependent aPL binding, the Ia-1 and Ib-1 peptides as well as the R39-R43 with a biotin at their N-terminal were synthetized and coated a streptavidin plate. In this configuration, the different peptides are flag oriented in the space preventing any interaction with the plate. It was thus observed that the flag-type orientation of R39-R43-biot leads to 8.52×more interaction with aPL while they show 9.63×more binding for Ib-1-biot presenting the same position. […] The surface plasmon resonance (SPR) technique is used to determine the relative avidity of aPL for R39-R43-biot and Ib-1-biot. The interaction between aPL and immobilized R39-R43-biot or Ib-1-biot is monitored by flowing various concentrations of aPL over a R39-R43-biot- or Ib-1-biot-coated chip surface (FIG. 1C). Through SPR experiments, it appears that aPL avidity for Ib-1-biot presents a resonance unit (RU) of 51.49 at 1/1,000 of dilution and a RU of 27.61 at 1/10,000 of dilution while, at the same dilution, it present a RU of 27.36 and a RU of 17.99 with R39-R43-biot, respectively (FIG. 1C). However, at higher concentrations, the peptides seems to show no differences in the interactions with aPL. […] Considering that IgG valency, it was decided to generate a dimeric Ib-1-biot peptide (Ib-1-biot-2x). This new polypeptide carries thus two optimized epitopes which have the opportunity to interact with two Fab fragment present on aPL. […] At higher concentration, i.e dilution of 1/100, the avidity for dimeric peptide is 28×more than for the monomeric (FIG. 1D).
It was performed a peptide substitution scan of Ib-1-biot VSRGGMRKKKKPLTG (SEQ ID NO: 6) carrying the optimized epitope Ib-1-biot and based on an exchange of the underlined amino acid positions with the 20 main amino acids. The resulting peptide microarrays contained 140 different peptides. It was observed that the peptide substitution of the position n° 1, 2, 12 and 15 have significant influences on the ability to interact with aPL from patients 1, 2, 3, 4 and, in particular, form the plasma pool. Indeed, the substitution of the position 1, 12 or 15 by an Arginine (R) or a Lysine (K) increases the avidity of the peptide for all aPL from patients. […] In this context, the enhancement relative to Ib-1.0-biot-2x of identified peptides was evaluated (FIG. 2A). […] However, streptavidin being known to produce unspecific binding, it was used the ratio between aPL and a pool of human plasma as control (B/B0) (FIG. 2B, upper panel). This representation therefore allows to distinguish the real levels of interactions. It was then performed a dilution assay from dilution of 1/100 to 1/1,200,000 and it was observed relevant differences between the different identified peptides. By comparison of area under the curve (AUC), it was possible to detect the most prone-interacting peptide with aPL. Thus, the peptide IIa-8.0-biot-2x obtained the higher AUC (FIG. 2B, bottom panel). To formally quantify the ability of aPL to interact with IIa-8.0-biot-2x, it was monitored by flowing various concentrations of aPL over a IIa-8.0-biot-2x-coated chip surface (FIG. 2C). […] In FIG. 2C, bottom panel, it can be appreciated more precisely the improvement of the quality of interactions. […]

Substance: IIa-8.0-biot-2x: dimeric biotinylated IIa-8.0 peptide; also used associated with streptavidin magnetic beads (RSRGGMRKRKKPLTGRSRGGMRKRKKPLTG; also: dimeric peptide (two IIa-8.0 copies), biotinylated, site not given here)
- ability to interact with aPL, enhancement relative to Ib-1.0-biot-2x (ELISA, four dilutions of aPL pool (FIG. 2A)): significantly increased with at least three of the four dilutions
- area under the curve (AUC) of dilution assay, B/B0 (dilution 1/100 to 1/1,200,000, aPL pool / pool of healthy plasma (FIG. 2B)): higher AUC
